Entries after “also recorded” stand apart in the source; their conditions may differ. Where no end group is shown, it is not given here.
How the values were obtained:
[1] = Behavior and weight of mice in the animal studies; format: in vivo, mouse
Experimental: (§1) 2×10^6 C81 cells in 50 µL of growth medium was mixed with 50 µL Matrigel (BD Biosciences) and injected into both flanks of 4–6-week old SCID male mice. When tumor sizes reached 200 mm^3, 50 µL of Peptide A-8R (40 mg Peptide A-8R/Kg of animal) or Vehicle (DMSO) was directly injected into the tumors every other day. Injections were stopped after 5 times and tumors were measured every 3 days. Mice were euthanized after 3 weeks and tumors were excised. All procedures were approved by the University of Toledo Division of Lab Animal Recourses (DLAR). Protein extracts were prepared by boiling the tumor tissue in 3× SDS buffer, and evaluated by SDS-PAGE gel.
(§2) This study was carried out in strict accordance with the recommendations in the Guide for the Care and Use of Laboratory Animals of the National Institutes of Health. The protocol was approved by the Institutional Animal Care and Use Committee of the University of Toledo (Protocol Number: 106418). During the experiments all animals were monitored daily for morbidity and all efforts were made to minimize suffering. At the end of the study all animals were euthanized using inhalation of carbon dioxide, after which surgery was performed to excise tumors from all animals.

[2] = test system: Caspase 3/7 activity in LNCaP cells; test: Caspase 3/7 assay, LNCaP cells; format: cell-based; conditions: Fig. 5A; for increase in Caspase 3/7 activity: 10 µM, averages of three independent experiments, relative to first condition
Experimental: (§3) For proliferation, cells were grown in medium containing 2% FBS extracted with dextran-coated charcoal (DCC). 48 hours later, ethanol or 1 nM R1881 was added to the cells followed by peptide treatment. The MTT assay (Sigma) was used as before to determine cell number. For apoptosis, 5000 cells were seeded in 96-well plates and treated with Vehicle (DMSO), Peptide A-8R (25 µM), Etoposide (50 µM) (Sigma) at different time points. The Caspase (3/7) activity was measured using Apo-ONE Homogeneous Caspase-3/7 assay kit (Promega). PARP cleavage was also used to measure apoptosis, and is described below.
Figure 5 Peptide A-8R induces apoptosis of prostate cancer cells. (A) LNCaP, (B) PC-3, or (C) Cos cells were treated with Vehicle, Peptide A-8R (10 µM), or Etoposide (20 µM) for 0–24 hrs and subjected to a Caspase assay to measure apoptosis. Bar graphs represent averages of three independent experiments plus standard deviations. All activities are relative to the first condition, and this activity was set to 1. Asterisks indicate statistical significance (P<0.005). (D) LNCaP cells were treated with Vehicle, Peptide C-8R, Peptide A-8R, or Etoposide (each drug at 50 µM) for 8 hrs and monitored for apoptosis by measuring PARP cleavage using Western blotting. Note that β-actin was used to control for protein loading.
Supplementary file pone.0064189.s005.tif: Figure S5 ROS generation is not induced by Peptide A-8R in PC-3 cells and Peptide C-8R in LNCaP cells. (A) PC-3 cells were treated with Vehicle or different concentrations of Peptide A-8R or Peptide C-8R, as shown, or (B) LNCaP cells were treated with Vehicle or different concentrations of Peptide A-8R or Peptide C-8R, or H2O2 and monitored for ROS generation after 0–30 (A) or 30 (B) min. (C) LNCaP cells were treated with Vehicle, Peptide C-8R (10 µM), Peptide A-8R (10 µM), or Etoposide (100 µM) for 0–8 hrs and subjected to a Caspase assay to measure apoptosis. Bar graphs represent averages of three independent experiments plus standard deviations. (C) All activities are relative to the first condition, and this activity was set to either 1. Asterisks indicate statistical significance (P<0.006) of all values compared to Vehicle (B) or to 0 hour (C). (TIF) Click here for additional data file.

[3] = test system: C81 xenograft tumors; test: C81 mouse xenograft tumor study; format: in vivo
Experimental: as §1, §2
(A) Mouse xenograft tumors derived from C81 cells were treated with Vehicle or Peptide A-8R, after which they were allowed to grow for an additional three weeks without treatment. Data points represent average tumor size of three animals for each treatment plus standard deviations. Note that there is a statistical difference (P<0.00004) in average tumor size for each day of tumor measurement. Arrow represents day of last injection of Vehicle or Peptide A-8R. […] Bar graphs represent averages of each set of three tumors plus standard deviations. Asterisks indicate statistical significance (P<0.02). (C) Two tumors, one on each flank of the same animal, were treated with either Vehicle or Peptide A-8R.

[4] = test system: PARP cleavage in LNCaP cells; test: PARP cleavage by Western blot, LNCaP cells; format: cell-based; conditions: 50 µM each drug, 8 hrs, Fig. 5D
Experimental: as §3
(§4) Western blotting was performed as described using primary antibodies against sGCα1 (Cayman Chemical), pan-Akt (Cell Signaling Technology), phospho-AKT (S473, T308) (Cell Signaling Technology), phospho-PDK1 (Cell Signaling Technology), phospho-GSK-3β (Cell Signaling Technology), PARP (Cell Signaling Technology), and β-Actin (Abcam).
Figure 5 Peptide A-8R induces apoptosis of prostate cancer cells. (A) LNCaP, (B) PC-3, or (C) Cos cells were treated with Vehicle, Peptide A-8R (10 µM), or Etoposide (20 µM) for 0–24 hrs and subjected to a Caspase assay to measure apoptosis. […] (D) LNCaP cells were treated with Vehicle, Peptide C-8R, Peptide A-8R, or Etoposide (each drug at 50 µM) for 8 hrs and monitored for apoptosis by measuring PARP cleavage using Western blotting. […]

[5] = test system: AKT; test: Western blot of AKT in cells; format: cell-based; conditions: LNCaP, 25 µM, Fig. S4A
Experimental: as §4
Supplementary file pone.0064189.s004.tif: Figure S4 Peptide A-mediated down-regulation of AKT is not involved in its cytotoxicity to prostate cancer cells. Western blotting was used to measure the levels of total AKT or Ser-473-phosphorylated AKT in (A) LNCaP cells treated with Vehicle, Peptide A-8R, or Peptide C-8R (25 µM) for different times, as shown, (B) mouse xenograft tumors treated with Vehicle or Peptide A-8R, or (C) LNCaP cells infected with Empty or AKT-expressing adenovirus and treated with Peptide A-8R at different concentration, as shown, for 30 min. Note that β-actin was used to control for protein loading. (D) LNCaP cells, infected with Empty or AKT-expressing adenovirus, were grown in 10% serum under different concentrations of Peptide A-8R, as shown. Cell number was measured after 0–6 days of incubation. Data points represent averages of three independent experiments plus standard deviations. (TIF) Click here for additional data file.

Question: Which “effect on behavior or weight of mice” value [1] does the source give for Ac-TFCKAFPFHIIRRRRRRRR [Peptide A-8R] here?
Answer: Its value is “no effect on the behavior or weight of the mice”.

Question: What about the “increase in Caspase 3/7 activity” value ([2]; 1 hour) of the same substance?
Answer: Its value is 2 fold.

Question: And the “increase in Caspase 3/7 activity” value ([2]; 8 hrs)?
Answer: Its value is roughly 4 fold.

Question: And the “speed of Caspase 3/7 induction relative to Etoposide” value [2]?
Answer: Its value is “much faster than the well-studied apoptosis-inducing drug Etoposide”.

Question: What about the “Caspase 3/7 activity” value ([2]; Peptide 10 µM, Etoposide 20 µM, 24 hrs) of the same substance?
Answer: The value was “diminished to Vehicle levels”.

Question: What about the “tumor growth during five injections, C81 xenograft” value ([3]; 40 mg/Kg intratumoral, every other day, 5 times, Fig. 6A, 6B, three animals per treatment, P<0.00004) of the same substance?
Answer: The value was “stopped tumor growth and actually caused some tumor regression during the five injections of peptide”.

Question: What about the “anti-tumor activity, C81 xenograft (summary)” value ([3]; intra-tumoral injection) of the same substance?
Answer: The value was “able to stop tumor growth; also recorded: blocks the growth of castration-resistant prostate tumors; also recorded: strong anti-cancer activity”.

Question: What about the “tumor growth three weeks after treatment stopped, C81 xenograft” value ([3]; three weeks after last injection, Vehicle tumors grew more than three-fold, Fig. 6A) of the same substance?
Answer: The value was “did not grow at all three weeks after Peptide treatment was stopped”.

Question: What about the “tumor size in same animal, Peptide- vs Vehicle-treated flank” value ([3]; two tumors, one per flank of same mouse, Fig. 6C) of the same substance?
Answer: Its value is “markedly smaller than the Vehicle-treated tumor”.

Question: What about the “induction of PARP cleavage” value [4] of the same substance?
Answer: The value was “to the same extent as by Etoposide”.

Question: And the “effect on phosphorylated AKT level” value ([5]; Ser-473)?
Answer: The value was “similarly affected”.

Question: What about the “effect on total AKT protein level” value ([5]; time course, 50 min) of the same substance?
Answer: The value was “strong, time-dependent negative effect on the AKT protein, such that by 50 min most of the measurable AKT is gone; also recorded: significantly reduces AKT protein levels”.

Reference: paper PMC3664642, “A Peptide against Soluble Guanylyl Cyclase α1: A New Approach to Treating Prostate Cancer” (PLoS ONE, 2013)
